According to US10517889B2, “Modulators of SMAD7 expression” (Ionis Pharmaceuticals, Inc., priority 2017, dated 2019):
Strand notation (5' to 3'): a small letter for the sugar, then the base; units joined by * are phosphorothioate-linked, units joined directly phosphodiester-linked; [ ] holds rarer units or linkages, { } end groups; capitals alone tell only the bases. k = constrained ethyl (cEt); [5mC] = 5-methylcytosine; d = 2'-deoxy (DNA)

Tested on: human SMAD7 mRNA
Test: Antisense inhibition of human SMAD7 mRNA expression in Hep3B cells by 3-10-3 cEt gapmers, 10,000 nM, electroporation (Example 2)
Format: cell-based
Conditions: Hep3B cells, electroporation with 10,000 nM antisense oligonucleotide, approximately 24 hours, RTS5062, percent inhibition of SMAD7 mRNA relative to untreated control cells
How it was run: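 Hep3B, 20,000 cells/well; electroporation, 10,000 nM ASO; ~24 h. Readout: SMAD7 mRNA by qRT-PCR (RTS5062), RIBOGREEN-normalised; % inhibition vs untreated.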

Compared with “799272 (antisense kA*kT*kT*dA*d[5mC]*dT*d[5mC]*dG*dA*dG*dT*d[5mC]*dA*kG*kG*k[5mC]) [compound 799272]”, “799273 (antisense kA*kT*k[5mC]*dA*dT*dT*dA*d[5mC]*dT*d[5mC]*dG*dA*dG*kT*k[5mC]*kA) [compound 799273]” is lower in “% Inhibition” value: 55% for the first, 41% for the second.

Going from “799274 (antisense kT*kT*kA*dA*dT*d[5mC]*dA*dT*dT*dA*d[5mC]*dT*d[5mC]*kG*kA*kG) [compound 799274]” to “799275 (antisense k[5mC]*kA*kG*dT*dT*dA*dA*dT*d[5mC]*dA*dT*dT*dA*k[5mC]*kT*k[5mC]) [compound 799275]”, the “% Inhibition” value falls from 24% to 0%.

First: 799276 (antisense kG*kG*k[5mC]*dA*dG*d[5mC]*d[5mC]*dA*dG*dT*dT*dA*dA*kT*k[5mC]*kA) [compound 799276]
Second: 799277 (antisense k[5mC]*kT*k[5mC]*d[5mC]*dG*dG*dG*d[5mC]*dA*dG*d[5mC]*d[5mC]*dA*kG*kT*kT) [compound 799277]
The “% Inhibition” value of the first is higher: 29% for the first, 21% for the second.

First: 799278 (antisense k[5mC]*k[5mC]*k[5mC]*dG*dT*d[5mC]*dT*dG*dG*dG*d[5mC]*dT*d[5mC]*k[5mC]*kG*kG) [compound 799278]
Second: 799279 (antisense kA*k[5mC]*k[5mC]*dT*dT*dG*dT*d[5mC]*dA*d[5mC]*d[5mC]*d[5mC]*dG*kT*k[5mC]*kT) [compound 799279]
The “% Inhibition” value of the first is lower: 14% for the first, 48% for the second.

Same assay, conditions: Hep3B cells, electroporation with 10,000 nM antisense oligonucleotide, approximately 24 hours, SMAD7 mRNA by RT-PCR (RTS5062), relative to untreated control cells

Going from “799241 (kA*kT*kT*d[5mC]*dT*d[5mC]*d[5mC]*dG*dT*dA*dT*dT*dT*kA*k[5mC]*kT; antisense) [compound 799241]” to “799252 (antisense k[5mC]*kA*kA*dA*dG*dG*dT*dG*d[5mC]*dG*d[5mC]*dG*dG*k[5mC]*k[5mC]*kA) [compound 799252]”, the “% Inhibition” value rises from 16% to 41%.

Going from “799253 (antisense k[5mC]*kT*k[5mC]*d[5mC]*dA*dA*dA*dG*dG*dT*dG*d[5mC]*dG*k[5mC]*kG*kG) [compound 799253]” to “799254 (antisense kA*kA*kA*d[5mC]*dT*d[5mC]*d[5mC]*dA*dA*dA*dG*dG*dT*kG*k[5mC]*kG) [compound 799254]”, the “% Inhibition” value rises from 0% to 11%.

“799255 (antisense k[5mC]*kA*kA*dA*dA*d[5mC]*dT*d[5mC]*d[5mC]*dA*dA*dA*dG*kG*kT*kG) [compound 799255]” and “799256 (antisense k[5mC]*k[5mC]*kA*dA*dA*dA*d[5mC]*dT*d[5mC]*d[5mC]*dA*dA*dA*kG*kG*kT) [compound 799256]” are the same in “% Inhibition” value: 0% for the first, 0% for the second.

Going from “799257 (antisense k[5mC]*k[5mC]*k[5mC]*d[5mC]*dA*dA*dA*dA*d[5mC]*dT*d[5mC]*d[5mC]*dA*kA*kA*kG) [compound 799257]” to “799258 (antisense kG*k[5mC]*k[5mC]*d[5mC]*d[5mC]*dA*dA*dA*dA*d[5mC]*dT*d[5mC]*d[5mC]*kA*kA*kA) [compound 799258]”, the “% Inhibition” value falls from 27% to 4%.

First: 799259 (antisense kT*kG*k[5mC]*d[5mC]*d[5mC]*d[5mC]*dA*dA*dA*dA*d[5mC]*dT*d[5mC]*k[5mC]*kA*kA) [compound 799259]
Second: 799260 (antisense kT*kT*kG*d[5mC]*d[5mC]*d[5mC]*d[5mC]*dA*dA*dA*dA*d[5mC]*dT*k[5mC]*k[5mC]*kA) [compound 799260]
The “% Inhibition” value of the first is higher: 45% for the first, 27% for the second.

“799261 (antisense kT*kT*kT*dG*d[5mC]*d[5mC]*d[5mC]*d[5mC]*dA*dA*dA*dA*d[5mC]*kT*k[5mC]*k[5mC]) [compound 799261]” was tested, and the “% Inhibition” value was 52%.

Same assay, conditions: Hep3B cells, electroporation with 10,000 nM antisense oligonucleotide, approximately 24 hours, primer probe set RTS5062, relative to untreated control cells

First: 799242 (k[5mC]*kG*kT*dG*dA*dT*dT*d[5mC]*dT*d[5mC]*d[5mC]*dG*dT*kA*kT*kT; antisense) [compound 799242]
Second: 799243 (k[5mC]*k[5mC]*kA*d[5mC]*dT*dG*dG*dT*dG*dT*dT*d[5mC]*dG*kA*k[5mC]*kG; antisense) [compound 799243]
The “% inhibition of SMAD7 mRNA expression” value of the first is lower: 0% for the first, 19% for the second.

First: 799244 (kG*kG*kG*d[5mC]*d[5mC]*dA*d[5mC]*dT*dG*dG*dT*dG*dT*kT*k[5mC]*kG; antisense) [compound 799244]
Second: 799245 (kG*kT*kA*dT*d[5mC]*dT*dG*dG*dG*d[5mC]*d[5mC]*dA*d[5mC]*kT*kG*kG; antisense) [compound 799245]
The “% inhibition of SMAD7 mRNA expression” value of the first is lower: 8% for the first, 18% for the second.

Compared with “799246 (antisense kA*k[5mC]*kA*dG*dT*dA*dT*d[5mC]*dT*dG*dG*dG*d[5mC]*k[5mC]*kA*k[5mC]) [compound 799246]”, “799247 (antisense kA*k[5mC]*kG*dA*d[5mC]*dA*dG*dT*dA*dT*d[5mC]*dT*dG*kG*kG*k[5mC]) [compound 799247]” is lower in “% inhibition of SMAD7 mRNA expression” value: 74% for the first, 61% for the second.

Going from “799248 (antisense kG*k[5mC]*k[5mC]*dA*d[5mC]*dG*dA*d[5mC]*dA*dG*dT*dA*dT*k[5mC]*kT*kG) [compound 799248]” to “799249 (antisense kG*k[5mC]*kG*dG*d[5mC]*d[5mC]*dA*d[5mC]*dG*dA*d[5mC]*dA*dG*kT*kA*kT) [compound 799249]”, the “% inhibition of SMAD7 mRNA expression” value falls from 40% to 26%.

Going from “799250 (antisense kT*kG*k[5mC]*dG*d[5mC]*dG*dG*d[5mC]*d[5mC]*dA*d[5mC]*dG*dA*k[5mC]*kA*kG) [compound 799250]” to “799251 (antisense kA*kG*kG*dT*dG*d[5mC]*dG*d[5mC]*dG*dG*d[5mC]*d[5mC]*dA*k[5mC]*kG*kA) [compound 799251]”, the “% inhibition of SMAD7 mRNA expression” value rises from 21% to 37%.

“799262 (antisense k[5mC]*kT*k[5mC]*dT*dT*dT*dG*d[5mC]*d[5mC]*d[5mC]*d[5mC]*dA*dA*kA*kA*k[5mC]) [compound 799262]” and “799263 (antisense kT*k[5mC]*k[5mC]*dA*dA*d[5mC]*dT*d[5mC]*dT*d[5mC]*dT*dT*dT*kG*k[5mC]*k[5mC]) [compound 799263]” are the same in “% inhibition of SMAD7 mRNA expression” value: 0% for the first, 0% for the second.

First: 799264 (antisense k[5mC]*k[5mC]*kA*dT*d[5mC]*d[5mC]*dA*dA*d[5mC]*dT*d[5mC]*dT*d[5mC]*kT*kT*kT) [compound 799264]
Second: 799265 (antisense k[5mC]*kT*kT*d[5mC]*d[5mC]*dA*dT*d[5mC]*d[5mC]*dA*dA*d[5mC]*dT*k[5mC]*kT*k[5mC]) [compound 799265]
The “% inhibition of SMAD7 mRNA expression” value of the first is higher: 16% for the first, 3% for the second.

Going from “799266 (antisense kG*kG*k[5mC]*d[5mC]*dT*dT*d[5mC]*d[5mC]*dA*dT*d[5mC]*d[5mC]*dA*kA*k[5mC]*kT) [compound 799266]” to “799267 (antisense kG*kT*kT*d[5mC]*dG*dG*d[5mC]*d[5mC]*dT*dT*d[5mC]*d[5mC]*dA*kT*k[5mC]*k[5mC]) [compound 799267]”, the “% inhibition of SMAD7 mRNA expression” value rises from 37% to 62%.

Same assay, conditions: Hep3B cells, electroporation, 10,000 nM antisense oligonucleotide, approximately 24 hours, RTS5062, relative to untreated control cells

First: 799270 (antisense kA*kG*kT*d[5mC]*dA*dG*dG*d[5mC]*dT*d[5mC]*dA*dA*dT*kG*kA*kG) [compound 799270]
Second: 799271 (antisense k[5mC]*kT*k[5mC]*dG*dA*dG*dT*d[5mC]*dA*dG*dG*d[5mC]*dT*k[5mC]*kA*kA) [compound 799271]
The “% inhibition of SMAD7 mRNA expression” value of the first is lower: 16% for the first, 60% for the second.

Going from “799280 (antisense kA*kG*k[5mC]*dA*d[5mC]*d[5mC]*dT*dT*dG*dT*d[5mC]*dA*d[5mC]*k[5mC]*k[5mC]*kG) [compound 799280]” to “799281 (antisense k[5mC]*kA*k[5mC]*dA*dG*d[5mC]*dA*d[5mC]*d[5mC]*dT*dT*dG*dT*k[5mC]*kA*k[5mC]) [compound 799281]”, the “% inhibition of SMAD7 mRNA expression” value falls from 44% to 25%.

First: 799282 (antisense kA*k[5mC]*kA*dG*dA*d[5mC]*d[5mC]*dA*d[5mC]*dA*dG*d[5mC]*dA*k[5mC]*k[5mC]*kT) [compound 799282]
Second: 799283 (antisense kA*kA*kG*dA*d[5mC]*dA*dG*dA*d[5mC]*d[5mC]*dA*d[5mC]*dA*kG*k[5mC]*kA) [compound 799283]
The “% inhibition of SMAD7 mRNA expression” value of the first is lower: 16% for the first, 34% for the second.

Compared with “799284 (antisense k[5mC]*kG*kT*dA*dA*dG*dA*d[5mC]*dA*dG*dA*d[5mC]*d[5mC]*kA*k[5mC]*kA) [compound 799284]”, “799285 (antisense kG*kG*k[5mC]*dT*dT*d[5mC]*dA*d[5mC]*dT*dG*d[5mC]*d[5mC]*d[5mC]*kA*kT*k[5mC]) [compound 799285]” is lower in “% inhibition of SMAD7 mRNA expression” value: 51% for the first, 36% for the second.

Going from “799286 (antisense kG*k[5mC]*kT*d[5mC]*dA*dG*dG*d[5mC]*dT*dT*d[5mC]*dA*d[5mC]*kT*kG*k[5mC]) [compound 799286]” to “799287 (antisense kT*k[5mC]*kT*dG*d[5mC]*dT*d[5mC]*dA*dG*dG*d[5mC]*dT*dT*k[5mC]*kA*k[5mC]) [compound 799287]”, the “% inhibition of SMAD7 mRNA expression” value rises from 0% to 15%.

In the case of “799288 (antisense kT*kA*kA*dT*dG*dG*dT*d[5mC]*dT*dG*d[5mC]*dT*d[5mC]*kA*kG*kG) [compound 799288]”, the “% inhibition of SMAD7 mRNA expression” value is reported as 23%.

Same assay, conditions: Hep3B cells, electroporation, 10,000 nM, approximately 24 hours; 3-10-3 cEt gapmers targeting SEQ ID NO: 3 and 4

First: 799268 (antisense kT*k[5mC]*k[5mC]*dA*dG*dT*dT*d[5mC]*dG*dG*d[5mC]*d[5mC]*dT*kT*k[5mC]*k[5mC]) [compound 799268]
Second: 799269 (antisense kA*kG*kA*d[5mC]*dT*d[5mC]*d[5mC]*dA*dG*dT*dT*d[5mC]*dG*kG*k[5mC]*k[5mC]) [compound 799269]
The “% inhibition of SMAD7 mRNA expression” value of the first is higher: 24% for the first, 20% for the second.
